According to PubChem BioAssay AID330 (DTP/NCI, 2004):
Several values for one entry are separate records, joined by “and”; a condition that tells them apart may be missing. Equal entries are not always repeated. Toxic doses and inconclusive results are not listed.

Tested on: P388 leukemia ip, CD2F1 mice, survival T/C
Test: NCI In Vivo Anticancer Drug Screen. Data for tumor model P388 Leukemia (intraperitoneal) in CD2F1 (CDF1) mice
Details: endpoint: median survival time, higher = longer survival
Outline: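 Mice carrying the transplanted tumor received test compound or vehicle. Survival was recorded in each group, and the value is the treated-group measurement divided by that of the vehicle-treated control group.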

[1] = dose: 25.0 mg/kg/injection, schedule: Q04DX002 (ip), vehicle: saline with Tween-80
[2] = dose: 50.0 mg/kg/injection, schedule: Q01DX005 (ip), vehicle: saline with Tween-80
[3] = dose: 100.0 mg/kg/injection, schedule: Q04DX002 (ip), vehicle: saline
[4] = dose: 200.0 mg/kg/injection, schedule: Q04DX002 (ip), vehicle: saline
[5] = dose: 400.0 mg/kg/injection, schedule: Q04DX002 (ip), vehicle: saline
[6] = dose: 50.0 mg/kg/injection, schedule: Q01DX005 (ip), vehicle: Klucel (hydroxypropylcellulose) (HPC)
[7] = dose: 100.0 mg/kg/injection, schedule: Q01DX005 (ip), vehicle: Klucel (hydroxypropylcellulose) (HPC)
[8] = dose: 200.0 mg/kg/injection, schedule: Q01DX005 (ip), vehicle: Klucel (hydroxypropylcellulose) (HPC)
[9] = dose: 100.0 mg/kg/injection, schedule: Q04DX003 (ip), vehicle: saline with Tween-80
[10] = dose: 200.0 mg/kg/injection, schedule: Q04DX003 (ip), vehicle: saline with Tween-80
[11] = dose: 400.0 mg/kg/injection, schedule: Q04DX003 (ip), vehicle: saline with Tween-80
[12] = dose: 60.0 mg/kg/injection, schedule: Q01DX005 (ip), vehicle: saline with Tween-80
[13] = dose: 120.0 mg/kg/injection, schedule: Q01DX005 (ip), vehicle: saline with Tween-80
[14] = dose: 240.0 mg/kg/injection, schedule: Q01DX005 (ip), vehicle: saline with Tween-80
[15] = dose: 50.0 mg/kg/injection, schedule: Q01DX009 (ip), vehicle: Klucel (hydroxypropylcellulose) (HPC)
[16] = dose: 100.0 mg/kg/injection, schedule: Q01DX009 (ip), vehicle: Klucel (hydroxypropylcellulose) (HPC)
[17] = dose: 200.0 mg/kg/injection, schedule: Q01DX009 (ip), vehicle: Klucel (hydroxypropylcellulose) (HPC)

Compound: N#CC1=C(C#N)C(=O)C(Cl)=C(Cl)C1=O
- T/C (dose: 3.13 mg/kg/injection, schedule: Q01DX009 (ip), vehicle: saline): 109 % of control
- T/C (dose: 6.25 mg/kg/injection, schedule: Q01DX009 (ip), vehicle: saline): 118 % of control
- T/C (dose: 6.25 mg/kg/injection, schedule: Q04DX002 (ip), vehicle: saline): 95 % of control
- T/C (dose: 6.25 mg/kg/injection, schedule: Q04DX003 (ip), vehicle: saline): 95 % of control
- T/C (dose: 12.5 mg/kg/injection, schedule: Q01DX009 (ip), vehicle: saline): 118 % of control
- T/C (dose: 12.5 mg/kg/injection, schedule: Q04DX002 (ip), vehicle: saline): 109 % of control
- T/C (dose: 12.5 mg/kg/injection, schedule: Q04DX003 (ip), vehicle: saline): 113 % of control
- T/C [1]: 117 % of control
- T/C (dose: 25.0 mg/kg/injection, schedule: Q04DX002 (ip), vehicle: saline): 116 % of control
- T/C (dose: 62.5 mg/kg/injection, schedule: Q01DX005 (ip), vehicle: saline): 95 % of control
- T/C (dose: 125.0 mg/kg/injection, schedule: Q01DX005 (ip), vehicle: saline): 113 % of control
- T/C (dose: 250.0 mg/kg/injection, schedule: Q01DX005 (ip), vehicle: saline): 94 % of control

Compound: CN(C)CCCN1c2ccccc2Sc2ccc3ccccc3c21
- T/C [2]: 104 % of control
- T/C (dose: 100.0 mg/kg/injection, schedule: Q01DX005 (ip), vehicle: saline with Tween-80): 102 % of control
- T/C (dose: 200.0 mg/kg/injection, schedule: Q01DX005 (ip), vehicle: saline with Tween-80): 104 % of control

Compound: Cc1ccccc1C1(Br)C(=O)c2ccccc2C1=O
- T/C [3]: 101 % of control
- T/C [4]: 101 % of control
- T/C [5]: 102 % of control

Compound: Cc1nc2sc3c(c2c(=N)n1N)CCCC3
- T/C (dose: 12.5 mg/kg/injection, schedule: Q01DX001 (ip), vehicle: Klucel (hydroxypropylcellulose) (HPC)): 103 % of control
- T/C (dose: 25.0 mg/kg/injection, schedule: Q01DX001 (ip), vehicle: Klucel (hydroxypropylcellulose) (HPC)): 97 % of control

Compound: C=C(C)c1nc(N)nc(N2CCCCC2)n1
- T/C [6]: 98 % of control
- T/C [7]: 102 % of control
- T/C [8]: 117 % of control

Compound: O=C(OCN1C(=O)C2C3C=CC(C2C1=O)C1C2C(=O)N(COC(=O)C4CCCN4)C(=O)C2C31)C1CCCN1 (centres undefined)
- T/C (dose: 25.0 mg/kg/injection, schedule: Q01DX009 (ip), vehicle: saline): 105 % of control and 108 % of control
- T/C (dose: 50.0 mg/kg/injection, schedule: Q01DX009 (ip), vehicle: saline): 108 % of control
- T/C (dose: 100.0 mg/kg/injection, schedule: Q01DX009 (ip), vehicle: saline): 162 % of control and 205 % of control

Compound: CCOC(C)n1c(C)nc2ccccc21 (centres undefined)
- T/C [3]: 99 % of control
- T/C [4]: 101 % of control
- T/C [5]: 97 % of control

Compound: CN(C)c1nc(N/N=C/c2ccc([N+](=O)[O-])cc2)nc(N(C)C)n1
- T/C [9]: 98 % of control
- T/C [10]: 105 % of control
- T/C [11]: 93 % of control

Compound: CC1Oc2cc3c(-c4c(O)cc(O)c5c(O)c6c(cc45)OC(C)C(C)C6=O)c(O)cc(O)c3c(O)c2C(=O)C1C (centres undefined)
- T/C (dose: 1.25 mg/kg/injection, schedule: Q01DX005 (ip), vehicle: saline): 101 % of control
- T/C (dose: 1.25 mg/kg/injection, schedule: Q01DX005 (ip), vehicle: suspension in saline): 100 % of control
- T/C (dose: 2.5 mg/kg/injection, schedule: Q01DX005 (ip), vehicle: saline): 100 % of control
- T/C (dose: 2.5 mg/kg/injection, schedule: Q01DX005 (ip), vehicle: suspension in saline): 95 % of control
- T/C (dose: 5.0 mg/kg/injection, schedule: Q01DX005 (ip), vehicle: suspension in saline): 121 % of control
- T/C (dose: 10.0 mg/kg/injection, schedule: Q01DX005 (ip), vehicle: suspension in saline): 116 % of control
- T/C (dose: 20.0 mg/kg/injection, schedule: Q01DX005 (ip), vehicle: suspension in saline): 110 % of control

Compound: NC(=O)C1C(=O)NC(=O)C1=O (centres undefined)
- T/C (dose: 15.0 mg/kg/injection, schedule: Q01DX005 (ip), vehicle: saline with Tween-80): 100 % of control
- T/C (dose: 30.0 mg/kg/injection, schedule: Q01DX005 (ip), vehicle: saline with Tween-80): 101 % of control
- T/C [12]: 109 % of control and 114 % of control

Compound: CN=C(N)N/N=C/c1ccc2c(c1)Cc1ccccc1-2
- T/C (dose: 6.25 mg/kg/injection, schedule: Q04DX002 (ip), vehicle: saline with Tween-80): 106 % of control and 122 % of control
- T/C (dose: 12.5 mg/kg/injection, schedule: Q04DX002 (ip), vehicle: saline with Tween-80): 109 % of control
- T/C [1]: 107 % of control
- T/C (dose: 50.0 mg/kg/injection, schedule: Q04DX002 (ip), vehicle: saline with Tween-80): 119 % of control and 124 % of control
- T/C (dose: 100.0 mg/kg/injection, schedule: Q04DX002 (ip), vehicle: saline with Tween-80): 118 % of control

Compound: CCN(CC)CCOC(=O)c1ccc(N=C/C=C/C(C#N)=C/NOC)cc1
- T/C (dose: 50.0 mg/kg/injection, schedule: Q01DX009 (ip), vehicle: saline with Tween-80): 113 % of control
- T/C (dose: 100.0 mg/kg/injection, schedule: Q01DX009 (ip), vehicle: saline with Tween-80): 101 % of control
- T/C (dose: 200.0 mg/kg/injection, schedule: Q01DX009 (ip), vehicle: saline with Tween-80): 103 % of control

Compound: Cc1ccc(N=C(c2ccccc2)C2C(=O)c3ccccc3C2=O)cc1
- T/C [6]: 97 % of control
- T/C [7]: 97 % of control
- T/C [8]: 94 % of control

Compound: COc1c2c(c(Cc3c4c(c(OC)c5c3OCO5)OC(C)C4)c3c1OCO3)CC(C)O2 (centres undefined)
- T/C (dose: 12.5 mg/kg/injection, schedule: Q01DX005 (ip), vehicle: saline with Tween-80): 96 % of control
- T/C (dose: 25.0 mg/kg/injection, schedule: Q01DX005 (ip), vehicle: saline with Tween-80): 94 % of control
- T/C [2]: 89 % of control and 95 % of control

Compound: O=C(CCC(=O)Nc1cc(Cl)ccc1Cl)CC(=O)c1ccc([N+](=O)[O-])cc1
- T/C [12]: 98 % of control
- T/C [13]: 100 % of control
- T/C [14]: 109 % of control

Compound: CCN(CC)C(=O)C(F)C(F)(F)C(F)(F)C(F)(F)C(F)(F)C(F)(F)C(F)(F)F (centres undefined)
- T/C [15]: 102 % of control
- T/C [16]: 101 % of control
- T/C [17]: 99 % of control

Compound: CCC(=O)O[C@H]1CC[C@H]2[C@@H]3[C@@H](C)CC4=CC(=O)CC[C@]4(C)[C@H]3CC[C@]12C
- T/C [9]: 90 % of control
- T/C [10]: 90 % of control
- T/C [11]: 90 % of control

Compound: COc1ccc(Oc2nc(=O)n3ccsc3n2)cc1
- T/C [9]: 108 % of control
- T/C [10]: 86 % of control
- T/C [11]: 94 % of control

Compound: O=NNc1ccc(S(=O)(=O)c2ccc3ccccc3c2)cn1
- T/C (dose: 3.12 mg/kg/injection, schedule: Q01DX009 (ip), vehicle: water): 120 % of control
- T/C (dose: 6.25 mg/kg/injection, schedule: Q01DX009 (ip), vehicle: water): 115 % of control
- T/C (dose: 12.5 mg/kg/injection, schedule: Q01DX009 (ip), vehicle: water): 116 % of control
- T/C (dose: 25.0 mg/kg/injection, schedule: Q01DX009 (ip), vehicle: water): 109 % of control

Compound: C=C1CC2(CCCC(=O)C2)OC1=O (centres undefined)
- T/C (dose: 12.5 mg/kg/injection, schedule: Q01DX005 (ip), vehicle: Klucel (hydroxypropylcellulose) (HPC)): 97 % of control
- T/C (dose: 25.0 mg/kg/injection, schedule: Q01DX005 (ip), vehicle: Klucel (hydroxypropylcellulose) (HPC)): 101 % of control
- T/C [6]: 99 % of control and 101 % of control

Compound: C/C(=N\NC(N)=S)c1ccccc1O
- T/C [15]: 99 % of control
- T/C [16]: 111 % of control
- T/C [17]: 102 % of control

Compound: CCOC(=O)C(SC(S(=O)(=O)c1ccccc1)S(=O)(=O)c1ccccc1)C(=O)OCC
- T/C [15]: 98 % of control
- T/C [16]: 90 % of control
- T/C [17]: 90 % of control

Compound: CCCCNC(C)C1(O)Cc2c(O)c3c(c(O)c2C(OC2CC(N)C(O)C(C)O2)C1)C(=O)c1c(OC)cccc1C3=O (centres undefined)
- T/C (dose: 0.62 mg/kg/injection, schedule: Q01DX009 (ip), vehicle: water): 111 % of control
- T/C (dose: 10.0 mg/kg/injection, schedule: Q01DX009 (ip), vehicle: water): 158 % of control and 161 % of control
- T/C (dose: 20.0 mg/kg/injection, schedule: Q01DX009 (ip), vehicle: water): 172 % of control and 181 % of control
- T/C (dose: 40.0 mg/kg/injection, schedule: Q01DX009 (ip), vehicle: water): 224 % of control
- T/C (dose: 80.0 mg/kg/injection, schedule: Q01DX009 (ip), vehicle: water): 218 % of control

Compound: COc1ccc(CCNC(=O)Cc2ccc(Cl)cc2)cc1OC
- T/C [12]: 99 % of control
- T/C [13]: 97 % of control
- T/C [14]: 92 % of control
